Measured values from patent US20080015147A1, “Method for inhibiting neuronal cell death” (priority 2006, published 2008).
Entries after “also recorded” stand apart in the source; their conditions may differ.

What was measured:
Type in all cases: cell-based, mouse
N38 cells = experiment: Cell viability by Trypan Blue uptake; details: 48 hrs
Method: The proportion of viable cells in the samples was determined by measuring Trypan Blue uptake. At 48 hrs, the cells from the four pH treatments were suspended using 1 ml of Trypsin EDTA, centrifuged at 1600 RPM for 4 min and resuspended in 1 ml of BSS (Hank's Balanced Salt Solution) (Sigma, St. Louis). An aliquot of 0.5 ml of 0.04% Trypan Blue solution was transferred to a 1.5 ml tube, […] of BSS was added to 0.2 ml of the cell suspension; the samples were mixed thoroughly and the cell suspension-Trypan Blue mixture was allowed to stand for 10 minutes and then counted on a hemocytometer. Separate counts were kept for both viable and non viable cells.

Akt = Akt western blot; details: all pH treatments; 48 hrs
Method: (§1) Western blots using Akt and phosphorylated Akt (P-Akt) primary antibodies were conducted on all conditions of the cultured N38 cells to determine whether TCAP was preventing cell death by phosphorylation. The same western blot procedure outlined above was repeated with an Akt primary antibody (Cell Signalling, Beverly) at a titer of 1:500, followed by membrane incubation with anti-rabbit HRP-conjugated secondary antibody (Amersham, Baie d'Urfé) at 1:3000, followed by exposure on Kodak X-OMAT Blue film (Perkin Elmer Canada Inc, Vaudreuil-Dorion) for 30 min. Phospho Akt expression at 48 hrs was determined using the method described above with a PAkt primary antibody (Cell Signalling 9271) at 1:1000 followed by membrane incubation with anti-rabbit HRP-conjugated secondary antibody (Amersham, Baie d'Urfé) at 1:2000 followed by exposure on Kodak X-OMAT Blue film (Perkin Elmer Canada Inc, Vaudreuil-Dorion) overnight. Cultured N38 cells were serum-starved for 48 hours in order to induce phosphorylation and following the same protocol above were loaded as a control. Total optical density of the blots, were quantified using LabWorks 4.0 Image Acquisition and Analysis Software from Ultra-Violet Products Ltd. (UVP).

catalase = experiment: Catalase gene expression by real-time PCR; details: p<0.001
Phospho-Akt = Phospho-Akt western blot; details: all pH treatments; 48 hrs
Method: as §1

superoxide dismutase [1] = experiment: Superoxide dismutase western blot
superoxide dismutase [2] = experiment: Superoxide dismutase gene expression by real-time PCR; details: p<0.01
caspase 8 = experiment: Caspase 8 colorimetric assay
Method: Caspase 8 and 3 colorimetric assays were performed on the N38 cells at all pH conditions. The assay was based on the detection of the chromophore pNA after cleavage from the labeled substrate IETD-pNA and DEVD-pNA for caspase 8 and 3, respectively. Comparison of the pNA absorbance from the suspected apoptotic sample was compared to the uninduced neutral pH sample. Caspase 8 and 3 were analysed using the Caspase-3 Colorimetric Activity Assay (Chemicon, Temecula USA) and Caspase-8 Colorimetric Activity Assay (Chemicon, Temecula USA). The cells from each pH treatment described previously at 24 and 48 hrs were removed using a cell scraper and centrifuged at 1500 rpm for 10 minutes. The cells were resuspended in 350 μl of chilled cell lysis buffer containing 500 μl PBS, 5 μl 1% Triton ×100 (Sigma, St. Louis), 25 μl proteinase inhibitor cocktail set III (VWR, Mississauga), 0.5 μM dithiothreitol (DTT) (Sigma, St. Louis) and 2.5 μl phenylmethylsulphonylfluoride (PMSF) diluted in 1 mL of methanol (EM Science, Gibbstown), then incubated on ice for 10 min and centrifuged for 5 minutes at 10,000 rpm. The supernatant, consisting of cytosolic extracts, was transferred to a new tube and a bicinchoninic acid (BCA) protein assay (Pierce, Rockford) was conducted to determine total protein concentration. The absorbance of each sample was measured on a SPECTRAmax Microplate spectrophotometer at 405 nm after an incubation period of 2 hours at 37° C. Changes in caspase 3 activity were determined by comparing the absorbance reading from the induced sample with the level of the uninduced control. Background readings from the buffer were subtracted from the reading of both the induced (pH 6.8, 8.0, 8.4) and uninduced (pH 7.4) samples before calculating changes in caspase 3 activity. The same was done for the detection of caspase 8. As a control, N38 cells were cultured with pH 7.4 DMEM and incubated for 4 days, apoptosis was then induced using 10 μM/ml etoposide and lysed according to the above protocol and used a control for all subsequent caspase 3 detection. All assays were performed with 4 replications.

[3] = test system: cells treated with 50 μM H2O2; experiment: H2O2 toxicity MTT assay
cleaved caspase 3 = experiment: Caspase 3 cleavage by immunoblot; details: 48 hr; any pH condition for TCAP-1
Method: Detection of caspase 3 cleavage was determined at 48 hrs. The samples at each pH and control (see above) were lysed using total protein isolation lysis buffer (described above). An aliquot of 25 μl of each sample was combined with 25 μl of 2×20% sodium dodecyl sulphate (SDS) sample buffer and loaded onto a 4-10% HCL-Tris pre cast polyacrylamide gel (BioRad, Mississauga). The gel was run at 200 v for 35 min and proteins were electrotransfered to a Hybond-C nitrocellulose membrane (Amersham, Baie d'Urfé) for 75 min at 100 v. After transfer, the membrane was washed with 10 ml of PBS with 0.05% Tween 20 (PBST) for 5 min at room temperature (RT) and the membrane was incubated in 10 ml of PBST-milk for one hour at RT followed by 3 times for 5 min washes with 10 ml of PBST. The membrane was then incubated with cleaved caspase 3 primary antibody (Cell Signaling Technology, Beverly) at a titre of 1:500 in 6 ml of PBST-milk with gentle agitation overnight at 4° C. The membranes were washed 3 times for 5 min with 10 ml of PBST followed by membrane incubation with anti-rabbit horseradish peroxidase (HRP)-conjugated secondary antibody (Amersham, Baie d'Urfé) at 1:3000 in 6 ml of PBST-milk with gentle agitation for 1 hr at RT. […]

teneurin C-terminus associated peptide [TCAP-1]
cell viability by trypan blue uptake (N38 cells; pH 6.8): significant decrease in the number of cells that took up the trypan blue stain | cell viability by trypan blue uptake (N38 cells; pH 6.8, listed as TCAP): increased the number of viable cells | cell viability by trypan blue uptake (N38 cells; pH 8.0): significant decrease in the number of cells that took up the trypan blue stain | cell viability by trypan blue uptake (N38 cells; pH 8.0, listed as TCAP): increased the number of viable cells | cell viability by trypan blue uptake (N38 cells; pH 8.4): significant decrease in the number of cells that took up the trypan blue stain | cell viability by trypan blue uptake (N38 cells; pH 8.4, listed as TCAP): increased the number of viable cells | endogenous Akt on western blot, vehicle vs TCAP (Akt): no difference in endogenous Akt | catalase mRNA induction (catalase; pH 8.0): 3 fold | catalase mRNA induction (catalase; pH 8.4): 5 fold | Akt phosphorylation (serine 473) on western blot (Phospho-Akt): no bands in any samples; also recorded: no indication of AKT phosphorylation | superoxide dismutase protein expression (superoxide dismutase [1]; pH 6.8): no significant differences in the expression of the superoxide dismutase protein | superoxide dismutase protein expression (superoxide dismutase [1]; pH 7.4): no significant differences in the expression of the superoxide dismutase protein | superoxide dismutase protein levels (superoxide dismutase [1]; pH 8.0, p<0.05): reduced the pH-induced decline in superoxide dismutase levels | superoxide dismutase protein levels (superoxide dismutase [1]; pH 8.4, p<0.01): reduced the pH-induced decline in superoxide dismutase levels | superoxide dismutase gene expression vs vehicle (superoxide dismutase [2]; pH 7.4): increase over the vehicle treated cells | superoxide dismutase gene expression vs vehicle (superoxide dismutase [2]; pH 8.4): increase over the vehicle treated cells | relative level of caspase 8 activity, of the etoposide-induced increase (caspase 8; pH 7.4): about 70% | caspase 8 activity vs vehicle (caspase 8; pH 7.4, P<0.001): increased caspase 8 activity | caspase 8 activity vs vehicle (caspase 8; pH 8.0): no significant differences in caspase 8 and 3 activity | caspase 8 activity vs vehicle (caspase 8; pH 8.4): no significant differences in caspase 8 and 3 activity | mitochondrial (MTT) activity vs vehicle ([3]; 0 hours): no effect | MTT activity relative to vehicle ([3]; 6 to 48 hours): significant increase in MTT activity | mitochondrial (MTT) activity vs vehicle ([3]; 6 hours, p<0.001): significantly increased mitochondrial activity | mitochondrial (MTT) activity vs vehicle ([3]; 12 hours, p<0.001): significantly increased mitochondrial activity | mitochondrial (MTT) activity vs vehicle ([3]; 24 hours, p<0.05): less significant effect | mitochondrial (MTT) activity vs vehicle ([3]; 48 hours, p<0.001): significantly increased mitochondrial activity | caspase 3 cleavage product (17/19 kDa) on western blot (cleaved caspase 3): could not be observed
